Experimental data published in publication PMC10374545, “A small molecule inhibitor of PTP1B and PTPN2 enhances T cell anti-tumor immunity” (Nature Communications, 2023).
“And” between values parts separate entries of the source, which are not always exact repeats. Equal values may be shown once.

Columns and labels:
MC38 colon tumors = assay: MC38 colon tumor growth in C57BL/6 mice; assay type: in vivo, mouse
Experimental: Male or female mice were injected subcutaneously with 5 × 10^5 MC38 tumor cells resuspended in 100 μl D-PBS into the flank. Alternatively, female mice were injected orthotopically with 5 × 10^5 AT3 or AT3-OVA or PTPN2-deleted AT3 or AT3-OVA tumor cells resuspended in 20 μl D-PBS into the fourth mammary fat pad. Tumor sizes were measured in two dimensions (mm^2) using electronic callipers two to three times per week as soon as tumors were palpable (20–25 mm^2).

Laforin = biological target: T1, Laforin (Homo sapiens, UniProt O95278); assay: PTP selectivity, DiFMUP assay; assay type: biochemical; settings: DiFMUP at Km
T1 construct: made in house; host or cells: E. coli BL21(DE3)
T1 sequence (O95278 whole entry): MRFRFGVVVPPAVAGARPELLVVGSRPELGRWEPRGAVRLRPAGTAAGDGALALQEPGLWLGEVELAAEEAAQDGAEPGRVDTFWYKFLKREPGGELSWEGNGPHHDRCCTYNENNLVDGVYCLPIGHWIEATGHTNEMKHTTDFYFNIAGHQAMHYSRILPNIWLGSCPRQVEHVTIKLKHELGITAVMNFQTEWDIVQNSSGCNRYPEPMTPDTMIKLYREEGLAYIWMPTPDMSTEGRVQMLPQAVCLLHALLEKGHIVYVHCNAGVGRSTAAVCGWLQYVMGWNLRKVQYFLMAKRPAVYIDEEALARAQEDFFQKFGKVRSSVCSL
Experimental: (§1) E. coli BL21(DE3) (Novagen) was used as an expression host and the induction of protein expression was carried out in LB media with 1 mM IPTG at 18 °C overnight. Cell pellets were stored at −80 °C for subsequent protein purification.
(§2) Protein purification of PTPs for enzymatic assays was conducted at 4 °C. Frozen cell pellets were lysed by sonication in 40 ml cold lysis buffer (50 mM Tris-HCl, pH 8.0, 150 mM NaCl, 5 mM imidazole, and 1 mM PMSF) per litre cell pellet. Cell lysates were clarified by centrifugation using a Beckman JA-18 rotor for 15 min at 5308 x g. The supernatant was incubated with HisPur Ni-NTA resin (Thermo Scientific) for 2 h and then packed onto a column and washed with 50 resin volume of buffer A (50 mM Tris-HCl, pH 8.0, 500 mM NaCl, 5 mM imidazole). The His-tagged proteins were eluted with Buffer B (50 mM Tris-HCl, pH=8.0, 500 mM NaCl, 300 mM imidazole,). Pooled His-protein-containing fractions were concentrated, loaded onto a HiLoad 26/600 Superdex 75 column (GE Healthcare Biosciences) and eluted with storage buffer (50 mM Tris-HCl, pH 8.0, 150 mM NaCl, 1 mM DTT, 10% glycerol). […] The protein was aliquoted and stored at −80 °C.
(§3) The PTP kinetic assay was modified from previous reported protocols[73],[74]. PTP activity was assayed using 6,8-Difluoro-4-Methylumbelliferyl Phosphate (DiFMUP, Invitrogen, cat# D6567,) as a substrate in 3,3-Dimethylglutaric acid (DMG) buffer (50 mM DMG, pH 7.0, 1 mM EDTA, 18 mM NaCl, 0.01% Triton X-100) at 25 °C. To determine the IC50 values, the assays were performed in 96-well plates (Corning Costar 3915). […] The final reaction volume is 200 µl. The reaction was allowed to proceed for 10 min and then quenched by the addition of 40 µl of a 160 µM solution of bpV(Phen) (Sigma-Aldrich, cat# SML0889). The fluorescence signal was measured using a CLARIOstar Plus Microplate Spectrophotometer (BMG Labtech) using excitation and emission wavelengths of 340 nm and 450 nm, respectively. Data were fitted using Prism GraphPad 9.2.0.
(§4) To determine the mode of inhibition, the reactions were initiated by the addition of enzyme (final concentration for PTP1B and PTPN2 was 0.05 nM) to the reaction mixtures (0.2 ml) containing various concentrations of DiFMUP with different concentrations of the inhibitor. The reaction was allowed to proceed for 10 min and then quenched by the addition of 40 µl of a 160 µM solution of bpV(Phen) (Sigma-Aldrich, cat# SML0889). The fluorescence signal was measured using a CLARIOstar Plus Microplate Spectrophotometer (BMG Labtech) using excitation and emission wavelength of 340 nm and 450 nm, respectively. Data were fitted using Prism GraphPad 9.2.0. For selectivity studies, the inhibition assay for other PTPs were performed under the same conditions as used for PTP1B and PTPN2 except with different DiFMUP concentration corresponding to the Km of the PTP studied.

CDC14B = biological target: T2, CDC14B (Homo sapiens, UniProt O60729); assay: PTP selectivity, DiFMUP assay; assay type: biochemical; settings: DiFMUP at Km
T2 construct: CDC14B, residues 1-411; made in house; host or cells: E. coli BL21(DE3)
T2 sequence (O60729 1-411): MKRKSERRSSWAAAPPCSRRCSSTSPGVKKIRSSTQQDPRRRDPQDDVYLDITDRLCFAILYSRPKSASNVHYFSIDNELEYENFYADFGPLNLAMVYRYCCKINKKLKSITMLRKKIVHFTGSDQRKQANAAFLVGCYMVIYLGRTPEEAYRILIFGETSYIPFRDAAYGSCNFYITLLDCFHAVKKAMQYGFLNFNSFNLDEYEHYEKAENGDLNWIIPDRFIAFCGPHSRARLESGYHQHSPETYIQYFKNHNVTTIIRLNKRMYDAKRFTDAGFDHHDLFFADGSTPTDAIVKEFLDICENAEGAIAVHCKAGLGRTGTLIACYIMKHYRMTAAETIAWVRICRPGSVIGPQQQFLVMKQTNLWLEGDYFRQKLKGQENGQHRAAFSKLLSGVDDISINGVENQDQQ
Experimental: as §1, §2, §3, §4

STEP = biological target: T3, STEP (Homo sapiens, UniProt P54829); assay: PTP selectivity, DiFMUP assay; assay type: biochemical; settings: DiFMUP at Km
T3 construct: STEP, residues 258-539; made in house; host or cells: E. coli BL21(DE3)
T3 sequence (P54829 282-563): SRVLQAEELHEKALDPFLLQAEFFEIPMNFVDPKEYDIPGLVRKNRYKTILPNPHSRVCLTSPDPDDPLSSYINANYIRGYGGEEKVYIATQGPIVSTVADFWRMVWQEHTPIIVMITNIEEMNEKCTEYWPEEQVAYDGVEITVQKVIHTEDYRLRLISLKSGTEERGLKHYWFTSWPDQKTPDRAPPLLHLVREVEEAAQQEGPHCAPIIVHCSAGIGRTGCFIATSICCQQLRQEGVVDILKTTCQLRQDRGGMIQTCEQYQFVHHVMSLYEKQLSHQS
Experimental: as §1, §2, §3, §4

MKP5 = biological target: T4, MKP5 (Homo sapiens, UniProt Q9Y6W6); assay: PTP selectivity, DiFMUP assay; assay type: biochemical; settings: DiFMUP at Km
T4 construct: MKP5, residues 320-647; made in house; host or cells: E. coli BL21(DE3)
T4 sequence (Q9Y6W6 320-467 limits assumed): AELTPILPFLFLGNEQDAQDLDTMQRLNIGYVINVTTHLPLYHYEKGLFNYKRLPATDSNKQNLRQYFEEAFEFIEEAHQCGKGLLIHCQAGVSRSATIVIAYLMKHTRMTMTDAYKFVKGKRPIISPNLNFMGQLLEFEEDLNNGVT
Experimental: as §1, §2, §3, §4

PTP-PEST = biological target: T5, PTP-PEST (Homo sapiens, UniProt Q05209); assay: PTP selectivity, DiFMUP assay; assay type: biochemical; settings: DiFMUP at Km
T5 construct: PTP-PEST, residues 5-304; made in house; host or cells: E. coli BL21(DE3)
T5 sequence (Q05209 5-304): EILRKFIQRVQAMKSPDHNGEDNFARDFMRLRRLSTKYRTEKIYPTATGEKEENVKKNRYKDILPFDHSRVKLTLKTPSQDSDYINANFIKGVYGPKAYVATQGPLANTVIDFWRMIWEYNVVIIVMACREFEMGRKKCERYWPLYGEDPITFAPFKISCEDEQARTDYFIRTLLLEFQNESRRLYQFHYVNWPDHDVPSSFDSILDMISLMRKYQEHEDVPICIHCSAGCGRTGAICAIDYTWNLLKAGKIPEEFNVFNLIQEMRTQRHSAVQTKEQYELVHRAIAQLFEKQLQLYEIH
Experimental: as §1, §2, §3, §4

PTPα = biological target: T6, PTPα (Homo sapiens, UniProt P18433); assay: PTP selectivity, DiFMUP assay; assay type: biochemical; settings: DiFMUP at Km
T6 construct: PTPα, residues 173-793; made in house; host or cells: E. coli BL21(DE3)
Experimental: as §1, §2, §3, §4

SHP-2 = biological target: T7, SHP-2 (Homo sapiens, UniProt Q06124); assay: PTP selectivity, DiFMUP assay; assay type: biochemical; settings: DiFMUP at Km
T7 construct: SHP-2, residues 224-528; made in house; host or cells: E. coli BL21(DE3)
T7 sequence (Q06124 224-528): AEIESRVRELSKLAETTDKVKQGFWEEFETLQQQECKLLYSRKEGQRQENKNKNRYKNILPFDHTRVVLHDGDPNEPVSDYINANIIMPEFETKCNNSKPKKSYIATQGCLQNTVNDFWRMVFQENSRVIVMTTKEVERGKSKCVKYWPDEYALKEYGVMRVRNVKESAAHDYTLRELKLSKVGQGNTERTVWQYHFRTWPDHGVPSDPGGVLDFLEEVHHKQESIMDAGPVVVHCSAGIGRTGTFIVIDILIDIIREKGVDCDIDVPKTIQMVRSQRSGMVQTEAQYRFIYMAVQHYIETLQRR
Experimental: as §1, §2, §3, §4

HePTP = biological target: T8, HePTP (Homo sapiens, UniProt P35236); assay: PTP selectivity, DiFMUP assay; assay type: biochemical; settings: DiFMUP at Km
T8 construct: HePTP, residues 22-360; made in house; host or cells: E. coli BL21(DE3)
T8 sequence (P35236 22-360): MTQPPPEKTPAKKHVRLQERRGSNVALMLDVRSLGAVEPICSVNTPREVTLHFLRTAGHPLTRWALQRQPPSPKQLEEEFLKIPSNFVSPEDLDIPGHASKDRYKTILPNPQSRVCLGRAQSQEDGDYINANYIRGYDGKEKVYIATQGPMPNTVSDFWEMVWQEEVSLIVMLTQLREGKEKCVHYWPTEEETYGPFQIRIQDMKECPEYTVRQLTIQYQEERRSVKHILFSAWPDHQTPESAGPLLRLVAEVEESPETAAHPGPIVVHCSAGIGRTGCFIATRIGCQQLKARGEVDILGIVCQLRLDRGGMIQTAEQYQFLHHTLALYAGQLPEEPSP
Experimental: as §1, §2, §3, §4

SHP-1 = biological target: T9, SHP-1 (Homo sapiens, UniProt P29350); assay: PTP selectivity, DiFMUP assay; assay type: biochemical; settings: DiFMUP at Km
T9 construct: SHP-1, residues 245-543; made in house; host or cells: E. coli BL21(DE3)
T9 sequence (P29350 245-543): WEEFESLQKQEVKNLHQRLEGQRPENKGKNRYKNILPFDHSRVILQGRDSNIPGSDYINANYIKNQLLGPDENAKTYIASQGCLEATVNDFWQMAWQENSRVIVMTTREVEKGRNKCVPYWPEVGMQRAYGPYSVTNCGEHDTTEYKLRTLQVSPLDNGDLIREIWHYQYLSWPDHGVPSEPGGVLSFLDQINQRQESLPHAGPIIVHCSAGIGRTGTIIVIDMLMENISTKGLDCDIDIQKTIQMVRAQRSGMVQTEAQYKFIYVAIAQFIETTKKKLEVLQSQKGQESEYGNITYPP
Experimental: as §1, §2, §3, §4

CDC14A = biological target: T10, CDC14A (Homo sapiens, UniProt Q9UNH5); assay: PTP selectivity, DiFMUP assay; assay type: biochemical; settings: DiFMUP at Km
T10 construct: CDC14A, residues 1-413; made in house; host or cells: E. coli BL21(DE3)
T10 sequence (Q9UNH5 1-413): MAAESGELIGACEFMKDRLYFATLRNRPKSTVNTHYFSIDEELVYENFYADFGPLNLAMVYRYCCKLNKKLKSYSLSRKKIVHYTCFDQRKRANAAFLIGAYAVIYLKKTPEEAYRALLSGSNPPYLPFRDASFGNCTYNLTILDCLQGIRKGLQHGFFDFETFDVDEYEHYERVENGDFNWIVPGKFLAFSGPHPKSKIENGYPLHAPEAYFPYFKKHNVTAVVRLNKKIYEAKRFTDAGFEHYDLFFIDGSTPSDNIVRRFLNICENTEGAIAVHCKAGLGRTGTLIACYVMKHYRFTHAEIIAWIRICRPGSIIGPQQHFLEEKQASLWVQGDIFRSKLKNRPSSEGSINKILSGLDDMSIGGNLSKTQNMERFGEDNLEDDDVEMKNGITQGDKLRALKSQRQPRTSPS
Experimental: as §1, §2, §3, §4

CD45 = biological target: T11, CD45 (Homo sapiens, UniProt P08575); assay: PTP selectivity, DiFMUP assay; assay type: biochemical; settings: DiFMUP at Km
T11 construct: CD45, residues 620-1236; made in house; host or cells: E. coli BL21(DE3)
T11 sequence (P08575 620-1236): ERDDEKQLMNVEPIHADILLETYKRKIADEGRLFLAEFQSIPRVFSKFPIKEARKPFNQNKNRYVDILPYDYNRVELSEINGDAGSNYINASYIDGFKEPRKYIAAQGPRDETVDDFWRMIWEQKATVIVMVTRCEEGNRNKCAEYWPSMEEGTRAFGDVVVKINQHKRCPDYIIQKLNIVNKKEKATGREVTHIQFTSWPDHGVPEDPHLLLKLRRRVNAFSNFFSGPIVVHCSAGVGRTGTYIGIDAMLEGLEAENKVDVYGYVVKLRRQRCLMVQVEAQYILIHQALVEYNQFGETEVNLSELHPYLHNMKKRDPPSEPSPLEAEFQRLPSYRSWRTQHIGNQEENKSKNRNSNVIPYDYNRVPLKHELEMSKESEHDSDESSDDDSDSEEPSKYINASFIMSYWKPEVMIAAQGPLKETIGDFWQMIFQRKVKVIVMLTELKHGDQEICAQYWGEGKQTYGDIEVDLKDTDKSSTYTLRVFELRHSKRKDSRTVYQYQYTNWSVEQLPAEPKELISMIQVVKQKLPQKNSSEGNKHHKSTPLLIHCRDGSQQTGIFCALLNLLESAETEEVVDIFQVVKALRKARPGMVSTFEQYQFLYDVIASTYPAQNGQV
Experimental: as §1, §2, §3, §4

CC(C)(O)CCOc1ccc2cc(O)c(N3CC(=O)NS3(=O)=O)c(F)c2c1 [Compound 182, 5-(1-Fluoro-3-hydroxy-7-(3-hydroxy-3-methylbutoxy)naphthalen-2-yl)−1,2,5-thiadiazolidin-3-one 1,1-dioxide]
Tumour weights MC38, individual mice (MC38 colon tumors; 10 mg, Figure 4A, listed as CMP-182, in mg (unit assumed)): 243 and 125 and 480 and 119 and 315 | Tumour growth MC38, individual mice (MC38 colon tumors; 10 mg, day 7 post injection, listed as CMP-182, in mm2): 20.3252 and 20.2131 and 15.2865 and 13.9084 and 14.2859 | Tumour growth MC38, individual mice (MC38 colon tumors; 10 mg, day 10 post injection, listed as CMP-182, in mm2): 21.1854 and 45.7254 and 22.9296 and 28.815 and 21.9308 | Tumour growth MC38, individual mice (MC38 colon tumors; 10 mg, day 13 post injection, listed as CMP-182, in mm2): 21.6489 and 72.4458 and 32.816 and 40.3221 and 29.9376 | Tumour growth MC38, individual mice (MC38 colon tumors; 10 mg, day 15 post injection, listed as CMP-182, in mm2): 31.85 and 42.18 and 22.5 and 27 and 32.94 | Tumour growth MC38, individual mice (MC38 colon tumors; 10 mg, day 16 post injection, listed as CMP-182, in mm2): 29.5394 and 119.382 and 44.1741 and 56.472 and 40.779 | Tumour growth MC38, individual mice (MC38 colon tumors; 10 mg, day 18 post injection, listed as CMP-182, in mm2): 34.2 and 109.2 and 37.7 and 77.4 and 61.62 | Tumour growth MC38, individual mice (MC38 colon tumors; 10 mg, day 20 post injection, listed as CMP-182, in mm2): 38.76 and 109.2 and 38.35 and 60.8 and 61.62 | growth of subcutaneous MC38 colorectal tumors (MC38 colon tumors; 10 mg/kg i.v. every 2 days): repressed the growth | Tumour size, mean over all time points (MC38 colon tumors; Figure 4A (MC38), CMP-182 10 mg, n=5, line printed as AT-3, in mm2): 42.78 | Tumour weights, median (MC38 colon tumors; MC38 tumours, CMP-182 10 mg, Figure 4A): 243.0, n=5 | Tumour size, Predicted (LS) mean 2 (MC38 colon tumors; MC38 tumours, CMP-182 10 mg, n=5, time point 7, Figure 4A, in mm2): 16.8 | Tumour size, Predicted (LS) mean 2 (MC38 colon tumors; MC38 tumours, CMP-182 10 mg, n=5, time point 10, Figure 4A, in mm2): 28.12 | Tumour size, Predicted (LS) mean 2 (MC38 colon tumors; MC38 tumours, CMP-182 10 mg, n=5, time point 13, Figure 4A, in mm2): 39.43 | Tumour size, Predicted (LS) mean 2 (MC38 colon tumors; MC38 tumours, CMP-182 10 mg, n=5, time point 15, Figure 4A, in mm2): 31.29 | Tumour size, Predicted (LS) mean 2 (MC38 colon tumors; MC38 tumours, CMP-182 10 mg, n=5, time point 16, Figure 4A, in mm2): 58.07 | Tumour size, Predicted (LS) mean 2 (MC38 colon tumors; MC38 tumours, CMP-182 10 mg, n=5, time point 18, Figure 4A, in mm2): 64.02 | Tumour size, Predicted (LS) mean 2 (MC38 colon tumors; MC38 tumours, CMP-182 10 mg, n=5, time point 20, Figure 4A, in mm2): 61.75 | IC50 (Laforin): > 20 µM | IC50 (CDC14B): 5.2 ± 1.7 µM | IC50 (STEP): > 20 µM | IC50 (MKP5): > 20 µM | IC50 (PTP-PEST): > 20 µM | IC50 (PTPα): > 20 µM | IC50 (SHP-2): 19.2 ± 1.7 µM | IC50 (HePTP): > 20 µM | IC50 (SHP-1): 9.1 ± 0.4 µM | IC50 (CDC14A): 6.3 ± 0.8 µM | IC50 (CD45): > 20 µM
